From patent US20230026869A1, “CRYSTAL FORM OF NUCLEOPROTEIN INHIBITOR AND USE THEREOF” (CHIA TAI TIANQING PHARMACEUTICAL GROUP CO., LTD., priority 2019, published 2023)

Experiments:
CYP2C19 = biological target: T1, CYP2C19 (Homo sapiens, UniProt P33261); assay: Inhibition of human liver microsomal cytochrome P450 isoenzyme CYP2C19; type: in vitro ADME; conditions: human liver microsomes
T1 construct: from tissue; host or cells: human liver microsomes
Procedure: (§1) Objective: The inhibitory effect of the test compound on the activity of human liver microsomal cytochrome P450 isoenzymes (CYP1A2, CYP2C9, CYP2C19, CYP2D6 and CYP3A4) was determined. […]

[1] = Experiment on cytotoxicity (CellTiter-Glo, 3 days); type: cell-based; conditions: 3 days incubation, read-out: 50% cytotoxic concentration (CC50)
Procedure: • 1. The compound was diluted with DMSO (dimethyl sulfoxide) in a 3-fold gradient for 9 concentrations, and added into a 96-well plate in duplicate. The compound concentration was 200-fold of the final test concentration. • 2. The cells were rinsed with PBS (phosphate buffered saline) once, added with 0.25% trypsin and digested for about 2-5 min in a 37° C., 5% CO2 incubator. Then the digestion was terminated with a cell culture medium and the cells were dispersed into single cells by pipetting with a pipettor. • 3. The cell density was counted with a cell counter, and adjusted to the required density with the medium. • 4. The cells were added into a 96-well plate that had been added with the compound. The final concentration of DMSO in each well was 0.5%. Wells containing 0.5% DMSO were used as non-toxic negative controls, and wells containing the cell culture medium were used as 100% cytotoxicity controls. Then the cell plate was incubated in a 37° C., 5% CO2 cell incubator for 3 days. • 5. The chemiluminescence signal (RLU, relative chemiluminescence unit) of each well in the cell plate was detected with the cell viability detection kit CellTiter-Glo using the multi-functional microplate reader Envision, with instructions on the kit followed. • 6. The raw data (RLU) were substituted into the following formula to calculate the cell viability of each well (cell viability %): […]

CYP2C9 = biological target: T2, CYP2C9 (Homo sapiens, UniProt P11712); assay: Inhibition of human liver microsomal cytochrome P450 isoenzyme CYP2C9; type: in vitro ADME; conditions: human liver microsomes
T2 construct: from tissue; host or cells: human liver microsomes
T2 sequence (P11712 whole entry): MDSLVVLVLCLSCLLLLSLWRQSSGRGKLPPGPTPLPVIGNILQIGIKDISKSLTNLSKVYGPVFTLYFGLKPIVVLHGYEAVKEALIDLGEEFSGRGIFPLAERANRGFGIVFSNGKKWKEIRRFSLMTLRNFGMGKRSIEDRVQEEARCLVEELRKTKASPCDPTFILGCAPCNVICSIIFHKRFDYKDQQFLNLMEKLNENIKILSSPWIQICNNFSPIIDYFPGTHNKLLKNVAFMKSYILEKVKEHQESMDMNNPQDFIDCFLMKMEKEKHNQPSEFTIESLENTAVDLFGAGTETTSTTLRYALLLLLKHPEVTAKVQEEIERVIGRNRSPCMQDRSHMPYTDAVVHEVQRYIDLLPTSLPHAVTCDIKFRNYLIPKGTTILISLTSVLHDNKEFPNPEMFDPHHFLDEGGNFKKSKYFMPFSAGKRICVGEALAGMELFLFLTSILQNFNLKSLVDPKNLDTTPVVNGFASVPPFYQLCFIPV
Procedure: as §1

HBV = assay: qPCR assay for in vitro testing of HBV (HBV DNA content in HepG2.2.15 cells); type: cell-based; conditions: Hepatitis B virus, 192 h, HBV DNA by qPCR, day 8, read-out: Concentration for 50% of maximal effect (EC50) of HBV
Procedure: HBV DNA content in HepG2.2.15 cells was detected by a real time-qPCR assay, and the inhibitory action of the compound on HBV was evaluated by taking the EC50 value of the compound as an index.
2.1. cell lines: HepG2.2.15 cells
3.1. HepG2.2.15 cells (4×10^4 cells/well) were plated in a 96-well plate and cultured overnight at 37° C. and 5% CO2.
3.2. On the next day, the compound was diluted for a total of 8 concentrations, with 3-fold gradient dilutions. The compound at different concentrations was added into the culture wells in duplicate. The final concentration of DMSO in the culture medium was 1%. 1 μM GLS4 served as 100% inhibition control (WO2008154817A1 discloses the structure of GLS4 as follows:
DMSO at 1% served as 0% inhibition control.
3.3. On the fifth day, the original culture medium was replaced with a fresh culture medium containing the compound.
3.4. On the eighth day, the culture medium in the culture wells was collected, and the high-throughput DNA purification kit (Qiagen-51162) was used to extract DNA. For specific steps, refer to the product manual.
3.6. 15 μL of the reaction mixture was added into each well of the 96-well PCR plate, and then 10 μL of sample DNA or HBV DNA standard was added into each well.
3.7. Reaction conditions for PCR were as follows: heating at 95° C. for 10 min; then denaturating at 95° C. for 15 s and extending at 60° C. for 1 min for 40 cycles.
3.8.1. […]

T1 sequence (P33261 whole entry): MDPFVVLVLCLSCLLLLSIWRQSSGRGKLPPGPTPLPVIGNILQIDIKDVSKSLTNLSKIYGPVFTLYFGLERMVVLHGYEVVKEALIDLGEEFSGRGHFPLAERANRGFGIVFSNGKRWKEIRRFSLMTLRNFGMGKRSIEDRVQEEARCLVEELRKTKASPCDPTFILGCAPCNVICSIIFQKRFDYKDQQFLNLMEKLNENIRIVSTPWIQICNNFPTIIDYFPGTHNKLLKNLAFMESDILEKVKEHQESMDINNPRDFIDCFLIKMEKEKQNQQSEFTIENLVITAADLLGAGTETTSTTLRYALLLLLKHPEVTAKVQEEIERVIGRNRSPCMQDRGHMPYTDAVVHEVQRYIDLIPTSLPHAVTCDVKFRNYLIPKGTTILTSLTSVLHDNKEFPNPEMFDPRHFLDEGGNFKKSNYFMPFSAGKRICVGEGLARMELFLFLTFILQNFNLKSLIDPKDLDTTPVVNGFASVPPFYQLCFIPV

Work on `CC1(NC(=O)C(=O)c2c(Cl)c(C(=O)Nc3cc(F)c(F)c(F)c3)c3n2CCC3)CCC(CC(=O)O)CC1` (stereo not shown) [Compound of formula (I)] yielded an IC50 (CYP2C19) greater than 50 µM, a CC50 at 3 days [1] greater than 50 µM and an IC50 (CYP2C9) greater than 50 µM. The EC50 (HBV) was 0.004 µM.
